# Reference: patent US10342774B2, “Topical pharmaceutical composition of acitretin” (priority 2013, dated 2019)
# Experiment: physchem
# Conditions: 25 °C, organic solvent or mixture, thermodynamic from solid
# Description: The saturation solubility of acitretin was determined by adding an excess amount of acitretin in a conical flask containing a mixture of diethylene glycol monoethyl ether, dimethyl isosorbide, and polysorbate 80, present in a w/w ratio of 3.3:24.1:1. The mixture was kept in a shaking water bath for 24 hours at 25° C.
smiles,measurement,value
"COc1cc(C)c(/C=C/C(C)=C/C=C/C(C)=C/C(=O)O)c(C)c1C [acitretin, all-trans-9-(4-methoxy-2,3,6-trimethylphenyl)-3,7-dimethyl-2,4,6,8-nonatetraenoic acid]",solubility at 24 h,2500 µg/mL
